# Results taken from PubChem BioAssay (NCI).
#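 Five concentrations, 48 hours, 96-well plates. The concentration for 50% growth inhibition is given as GI50. At the TGI there is no net growth.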
# Legend:
# Test in all cases: growth of human tumour cells (NCI), 48 h
# [1] = test system: IGROV1 ovarian
# [2] = test system: A549 NSCLC
# [3] = test system: SK-MEL-5 melanoma
# [4] = test system: SNB-19 CNS
# [5] = test system: SK-MEL-2 melanoma
# [6] = test system: SW-620 colon
# [7] = test system: U251 CNS
# [8] = test system: OVCAR-3 ovarian
# [9] = test system: MDA-MB-231 breast
# [10] = test system: OVCAR-5 ovarian
Structure (SMILES),TGI [1] [µM],TGI [2] [µM],TGI [3] [µM],TGI [4] [µM],TGI [5] [µM],TGI [6] [µM],TGI [7] [µM],GI50 [1] [µM],GI50 [2] [µM],GI50 [8] [µM],TGI [8] [µM],GI50 [3] [µM],GI50 [4] [µM],GI50 [5] [µM],GI50 [6] [µM],GI50 [7] [µM],GI50 [9] [µM],TGI [9] [µM],GI50 [10] [µM],TGI [10] [µM]
COc1ccc(OC(=O)CC2Cc3cc(OC)c(OC)c(OC)c3-c3ccc(SC)c(=O)cc32)cc1 (configuration not stated),> 100,> 100,13,> 100,59,> 39.7,> 100,,,,,,,,,,,,,
O=C1c2ccccc2N2OC3(N4CCCC4)CCCCC3C12c1ccccc1 (configuration not stated),> 100,52.1,32,> 100,,31.5,> 100,,,,,,,,,,,,,
Cc1ccc(C2C3Cc4ccccc4C3=NN2c2ccc(S(=O)(=O)/N=c3\scc(-c4ccccc4)n3-c3ccccc3)cc2)cc1 (configuration not stated),> 100,60.1,26,> 100,52.6,31.6,37.8,26.5,19,16.6,43.7,13.2,64.8,21.9,15.7,18.7,14.9,32.7,,
O=C(NNS(=O)(=O)c1ccc(Cl)cc1Cl)c1cccnc1Nc1ccc(Cl)cc1,,70.1,29.7,> 100,42.5,> 100,> 100,,24.4,20.6,> 100,14.2,27,18.6,28.4,34.4,19,50.7,26.2,78.2
COc1ccc(C(=O)/C=C/c2ccc(OCC#N)cc2)cc1,> 10,> 100,28.4,> 100,,33.6,32.5,,,,> 100,,,,,,,72.5,,> 100
O=C1C=C(O)C(=Cc2c(O)cc(O)cc2O)C(O)=C1,> 100,> 100,> 100,> 100,> 100,> 100,> 100,,,,> 100,,,,,,,,,> 100
NNc1nnc(-c2nnc(NN)o2)o1,> 10,> 10,> 10,> 10,,> 10,> 10,,,,> 10,,,,,,,> 10,,> 10
Cc1ccc(NC(=O)C(=O)C(C(=O)/C=C/c2ccccc2)C2OC(=O)c3ccccc32)c(C)c1 (configuration not stated),> 100,> 100,> 100,> 100,,> 100,> 100,,,,> 100,,,,,,,,,> 100
ClC1=C(Cl)C(Cl)(Cl)c2c3c(c4c(c21)C(Cl)(Cl)C(Cl)=C4Cl)C(Cl)(Cl)C(Cl)=C3Cl,> 100,> 100,> 100,> 100,,> 100,> 100,,,,> 100,,,,,,,,,
CC(C)(C)c1cc2nc(c1)C(C(F)(F)F)(C(F)(F)F)OB(Br)OC2(C(F)(F)F)C(F)(F)F,8.83,6.77,,14.9,11.2,15.8,1.37,,,,,,,,,,,,,8.39
COc1ccc(NC(=O)C(=O)/C=C(\O)c2ccccc2)cc1,> 10,> 10,> 10,,,> 10,,,,,,,,,,,,> 10,,
Cc1cc(=O)c2c(O)cc3c(c2o1)CC=C(COC1OC(COC2OC(CO)C(O)C(O)C2O)C(O)C(O)C1O)CO3 (configuration not stated),> 100,> 100,> 100,> 100,> 100,> 100,> 100,,,,> 100,,,,,,,,,> 100
N#CC1(C#N)C(c2ccccc2)C=CC12OCCCO2 (configuration not stated),> 100,> 100,> 100,> 100,> 100,> 100,> 100,,,,> 100,,,,,,,,,> 100
Cc1ccncc1C(N)=O,> 100,> 100,> 100,> 100,,> 100,> 100,> 100,> 100,> 100,> 100,> 100,> 100,,> 100,> 100,> 100,> 100,> 100,> 100
COc1cc2ncc3c(nc4sccn43)c2cc1OC,,> 100,> 100,> 100,> 100,> 100,39.3,,28.7,13.1,42,48.4,47.2,31.1,41.9,16.5,24.2,78.3,26.8,60.5
c1ccc2c(c1)CCc1c-2n[nH]c1-c1[nH]nc2c1CCc1ccccc1-2,> 100,> 100,> 100,> 100,> 100,> 100,> 100,,,,> 100,,,,,,,,,> 100
CCOC(=O)/C(I)=C/c1cc(OC)c(OC)c(OC)c1,93.7,22.5,24.5,31.8,> 100,11.6,18.3,,,,14.1,,,,,,,,,20
C1CSCCSCCCSCCSCCCSCCSCCCSCCSC1,> 100,> 100,> 100,> 100,> 100,> 100,> 100,,,,> 100,,,,,,,,,> 100
O=C(Cc1nc2ccccc2o1)C(=O)Nc1cccc(C(F)(F)F)c1,> 100,> 100,> 100,> 100,> 100,> 100,> 100,,,,> 100,,,,,,,,,> 100
N[C@H](COCc1ccccc1)c1ccccc1,> 100,> 100,44.8,> 89.7,49.8,> 72.3,> 100,,,,> 76.2,,,,,,,,,87.2
